Data published in patent publication US9388313B2, “Water-insoluble coloring compound, ink, thermal transfer recording sheet, and color filter resist composition” (CANON KABUSHIKI KAISHA, priority 2012, dated 2016).
Where two headings read alike, the source gives them in different places.

How the values were obtained:
[1] = Evaluation of solvent solubility of water-insoluble coloring compound (visual); format: physicochemical; settings: organic solvent or mixture, thermodynamic from solid, room temperature
Method: The solvent solubilities of Compounds (1), (4), (11), (18), (23), (26), and (28) as the water-insoluble coloring compounds and Comparative Compounds (1) and (2) were evaluated by dissolving 30 mg of each compound in 0.7 mL of each solvent, toluene, methanol, ethyl acetate, or chloroform, at room temperature, and visually observing each solution according to the following evaluation criteria:
B: suspended material slightly remained, and […]

[2] = Visual investigation of color filters; settings: cyclohexanone-based resist composition
Method: Color filter resist composition (1) of the present invention was prepared by slowly adding 22 parts of Ink (A) to a solution of 6.7 parts of an acrylic copolymer composition (weight average molecular weight Mw: 10000) composed of 40% by mass of n-butyl methacrylate, 30% by mass of acrylic acid, and 30% by mass of hydroxyethyl methacrylate in monomer ratios, 1.3 parts of dipentaerythritol pentaacrylate, and 0.4 parts of 2-benzyl-2-dimethylamino-1-(4-morpholinophenyl)-butanone (photopolymerization initiator) in 96 parts of cyclohexanone, stirring the mixture at room temperature for 3 hours, and filtering the reaction solution through a filter of 1.5 μm pore size.
Color filter (1) was produced by spin-coating color filter resist composition (1) on a glass substrate and then drying at 90° C. for 3 min, exposure of the entire surface to light, and post-curing at 180° C.

[3] = 30 mg in 0.7 mL chloroform, read-out: Solubility Chloroform
[4] = 30 mg in 0.7 mL ethyl acetate, read-out: Solubility Ethyl acetate
[5] = 30 mg in 0.7 mL methanol, read-out: Solubility Methanol
[6] = 30 mg in 0.7 mL toluene, read-out: Solubility Toluene

| Structure (SMILES) | solubility [1, 3] [mg/mL] | solubility [1, 4] [mg/mL] | solubility [1, 5] [mg/mL] | solubility [1, 6] [mg/mL] | solvent solubility (demonstrated by spin-coating uniformity) [2] |
| --- | --- | --- | --- | --- | --- |
| CCCCC(CC)CN(CC(CC)CCCC)S(=O)(=O)c1ccccc1/N=N/c1c(O)[nH]c(=O)c(C(=O)OCC)c1C (centres unmarked) [Compound 4] | > 42.9 | > 42.9 | > 42.9 | > 42.9 |  |
| CCCCC(CC)CN(CC(CC)CCCC)C(=O)c1ccccc1/N=N/c1c(O)[nH]c(=O)c(C(=O)OCC)c1C (centres unmarked) [Compound 1] | > 42.9 | > 42.9 | > 42.9 | > 42.9 | high solvent solubilities |
| CCCCCc1c(/N=N/c2ccccc2C(=O)N(CC(CC)CCCC)CC(CC)CCCC)c(O)[nH]c(=O)c1C(=O)N1CCCCC1 (centres unmarked) [Compound 26] | > 42.9 | > 42.9 | > 42.9 | > 42.9 |  |
| CCCCC(CC)CN(CC(CC)CCCC)C(=O)c1ccc(/N=N/c2c(O)[nH]c(=O)c(C#N)c2C)cc1 (centres unmarked) [compound 2, reference compound] | < 42.9 | < 42.9 | < 42.9 | < 42.9 | poor solvent solubilities |
| CCOC(=O)c1c(C)c(/N=N/c2ccccc2C(=O)N(C2CCCCC2)C2CCCCC2)c(O)[nH]c1=O [Compound 28] | > 42.9 | > 42.9 | > 42.9 | > 42.9 |  |
| CCCCC(CC)CN(CC(CC)CCCC)C(=O)c1ccc(/N=N/c2c(O)[nH]c(=O)c(C(=O)OCC)c2C)cc1 (centres unmarked) [Compound 18] | > 42.9 | > 42.9 | > 42.9 | > 42.9 | high solvent solubilities |
| CCCCC(CC)CN(CC(CC)CCCC)C(=O)c1cccc(/N=N/c2c(O)[nH]c(=O)c(C(=O)OCC)c2C)c1 (centres unmarked) [Compound 11] | > 42.9 | > 42.9 | > 42.9 | > 42.9 | high solvent solubilities |
| CCCCC(CC)CN(CC(CC)CCCC)S(=O)(=O)c1ccc(/N=N/c2c(O)[nH]c(=O)c(C#N)c2C)cc1 (centres unmarked) [compound 1, reference compound] | < 42.9 | < 42.9 | < 42.9 | < 42.9 | poor solvent solubilities |
| CCCCC(CC)CN(CC(CC)CCCC)C(=O)c1ccccc1/N=N/c1c(O)[nH]c(=O)c(C(=O)NC(C)(C)C)c1C (centres unmarked) [Compound 23] | > 42.9 | > 42.9 | > 42.9 | > 42.9 |  |
